# Assay results published in US10829506B2, “Amino- or ammonium-containing sulfonic acid, phosphonic acid and carboxylic acid derivatives and their medical use” (GRI Bio, Inc., priority 2011, dated 2020).
# Tested on: phospho-Akt Ser473
# Experiment: Inhibition of Akt phosphorylation on Ser473 in IgE sensitized, antigen stimulated RBL-2H3 cells
# Type: cell-based, rat
# Conditions: normalized to total Akt, IgE and antigen for 15 min
# Text: The mast cell degranulation assay using the RBL-2H3 cell line (see Example 27) was also used to determine the status of the PI3K/Akt axis. Activation of PI3K leads to production of PIP3 on the cytosolic side of the lipid bilayer. Akt is recruited to the PIP3 domain and subsequently activated by phosphorylation on residues Ser473 and Thr308. (Franke et al., Cell 81:727-736, (1995)). Once recruited to the membrane, it is phosphorylated and activated by other kinases (Hemmings, Science 275:628-630 (1997); Hemmings. Science 276:534 (1997); Downward, Science 279:673-674 (1998); Alessi et al., EMBO J. 15:6541-6551 (1996)). Western blotting of the phosphorylated Ser473 residue on Akt (phospho-Akt Ser473) is widely used to assess the level of activation of the PI3K/Akt axis.
# All buffers and solutions used for the phosphor-Akt Ser473 assay were from Meso Scale Discovery. Tris Lysis Buffer consisted of 150 mM NaCl, 20 mM Tris, pH 7.5, 1 mM EDTA, 1 mM EGTA and 1% Triton-X-100. Complete Tris Lysis Buffer was prepared prior to use by addition of protease inhibitor, phosphatase inhibitors and PMSF. The 10x Tris Wash Buffer consisted of 500 mM Tris, pH 7.5, 1.5 M NaCl and 0.2% Tween-20. Blocker A was made up of bovine serum albumin in Tris Wash Buffer. Read Buffer T was used according to manufacturer's instructions. The Whole Cell Lysate Kits used were phospho-Akt Ser473 (K11100D. Lot K0011749) and total ERK½ (K11107D, Lot K0011698) as a loading control.
# Protein assay: protein concentration was determined using the BCA (bicinchoninic acid) Protein Assay kit according to the manufacturer's instructions, Briefly, duplicate 10 μl samples of bovine serum albumin (BSA) standards, blank and lysates were incubated in a 96-well plate with 0.2 ml working reagent for 30 min at 37° C. Plates cooled to room temperature for 5 min and absorbance at 562 nm measured in a multi-mode plate reader. Protein concentrations were calculated using FlexStation 3 software (SoftMax Pro version 5.3). Protein concentration of lysates was determined from a standard curve (BSA) using a linear curve fit.
# Phosphoprotein assay: protein phosphorylation was determined using the MULTI-SPOT® Assay System (Meso Scale Discovery), providing simultaneous detection of phosphorylated and total proteins. Briefly, capture antibodies against phosphorylated and total protein are patterned on distinct spots in the same well of 96-well plates. Sandwich immunoassay and electrochemiluminescence detection technology are combined to measure intensity of the emitted light from phosphorylated and total protein spots. For analysis of phosphor-Akt Ser473 was performed according to the manufacturer's instructions. The optimal amount of protein was determined at 5 μg lysate per well for ERK½ and 10 μg/well for phospho-Akt Ser473. Plates were blocked with 25 μl/well Blocker A for 1 h at room temperature with gentle agitation. During this time, the lysates were thawed and diluted to the desired protein concentration in complete Tris Lysis Buffer. Plates were washed four times in Tris Wash Buffer and 25 μl lysate per well added. Plates were incubated for 1-3 h at room temperature with agitation according to the manufacturer's recommendations. Plates were washed four times with Tris Wash Buffer, followed by addition of 25 μl/well of the respective detection antibody and incubation for 1 h at room temperature, with agitation. After a final four washes with Tris Wash Buffer 150 μl/well, Read Buffer T was added, and plates read on a SECTOR Imager 6000 plate reader.
# The mean background signal from each plate was subtracted from averaged raw data. The amount of total protein phosphorylaled was expressed as % phosphoprotein according to the manufacturer's (Meso Scale Discovery) Instructions.
# Levels of phospho-Akt Ser473 were determined in IgE sensitized and antigen stimulated cells after treatment without (positive control) or with 1, 5 and 25 μM test compound and normalized to levels of total Akt.
smiles,measurement,setting,value
"CCCCCCCCCCCCCC[N+](C)(C)CCCS(=O)(=O)[O-] [Compound 1a, 3-(N,N-Dimethylmyristylammonio)-Propanesulfonate]",Level of phospho-Akt Ser473,1 μM,103.1 ± 17.4 % positive control
same,Level of phospho-Akt Ser473,5 μM,57.0 ± 15.2 % positive control
same,Level of phospho-Akt Ser473,25 μM,13.2 ± 4.2 % positive control
